The values that follow are results of earlier work, collected in paper PMC8405607 (British Journal of Cancer, 2021).

Structures are written as SMILES.

In one data set the test system is p53. The arrangement: method as in PMID 21643018. The following applies: prolonged exposure; cited from earlier work.
On the set-up of data set [1]: method as in PMID 24309210, PMID 23084521, PMID 28240971. The following applies: liposarcoma trial; cited from earlier work.

`COc1ccc(C2=N[C@@H](c3ccc(Cl)cc3)[C@@H](c3ccc(Cl)cc3)N2C(=O)N2CCNC(=O)C2)c(OC(C)C)c1` [Nutlin-3a]: the p53 mutations result in the data set with p53 was “increased incidence of p53 mutations”.
For `CCOc1cc(C(C)(C)C)ccc1C1=N[C@@](C)(c2ccc(Cl)cc2)[C@@](C)(c2ccc(Cl)cc2)N1C(=O)N1CCN(CCCS(C)(=O)=O)CC1` [RG7112], in data set [1], the “patients experiencing grade 4 neutropenia” value was 30% and the “patients experiencing prolonged grade 4 thrombocytopenia” value is reported as 15%.
